Assay results as given in patent US12570675B2, “Boronic acid compounds” (LG CHEM, LTD., priority 2020, dated 2026).

Target: Proteasome chymotrypsin-like activity (S26 protein from RPMI8226 cells) (Homo sapiens, UniProt P28074)
Type: biochemical
Details: S26 protein from RPMI8226 cell extract 2 ug/well, substrate 20 uM, 37° C., 90 minutes; read-out: Proteasome chymotrypsin-like activity inhibition IC50
Summary of the method: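 Inhibition is measured in crude proteasome (S26) from RPMI8226 cells at 2 ug/well, using 20 uM substrate specific to each activity: Suc-LLVY-AMC for chymotrypsin-like, Z-LLE-AMC for caspase-like. Compounds span a dilution series from 10 uM.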

Proteasome chymotrypsin-like activity (S26 protein from RPMI8226 cells), sequence (P28074 60-263 limits assumed): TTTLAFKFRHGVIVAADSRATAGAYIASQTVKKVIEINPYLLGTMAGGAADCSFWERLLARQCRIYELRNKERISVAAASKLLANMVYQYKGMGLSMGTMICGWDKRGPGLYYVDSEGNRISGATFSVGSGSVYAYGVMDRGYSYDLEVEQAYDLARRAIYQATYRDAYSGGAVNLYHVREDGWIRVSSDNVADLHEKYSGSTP

IC50 | SMILES
< 10 nM | Cc1nn(C(C)C)c(C(=O)NCC2=NOC(Cc3ccccc3)(C(=O)N[C@@H](CC(C)C)B(O)O)C2)c1Cl (stereo partly drawn) [Example 222, ((1R)-1-(5-benzyl-3-((4-chloro-1-isopropyl-3-methyl-1H-pyrazol-5-carboxamido)methyl)-4,5-dihydroisoxazol-5-carboxamido)-3-methylbutyl)boronic acid]
< 10 nM | CC(C)C[C@H](NC(=O)C1(Cc2cccc(Cl)c2)CC(CNC(=O)c2cc(C(C)C)on2)=NO1)B(O)O (stereo partly drawn) [Example 223, ((1R)-1-(5-(3-chlorobenzyl)-3-((5-isopropylisoxazol-3-carboxamido)methyl)-4,5-dihydroisoxazol-5-carboxamido)-3-methylbutyl)boronic acid]
< 10 nM | Cc1cc(C(=O)NCC2=NOC(Cc3cccc(Cl)c3)(C(=O)N[C@@H](CC(C)C)B(O)O)C2)n(C(C)C)n1 (stereo partly drawn) [Example 225, ((1R)-1-(5-(3-chlorobenzyl)-3-((1-isopropyl-3-methyl-1H-pyrazol-5-carboxamido)methyl)-4,5-dihydroisoxazol-5-carboxamido)-3-methylbutyl)boronic acid]
< 25 nM | Cc1nn(C)cc1C(=O)NCC1=NOC(Cc2ccccc2)(C(=O)N[C@@H](CC(C)C)B(O)O)C1 (stereo partly drawn) [Example 226, ((1R)-1-(5-benzyl-3-((1,3-dimethyl-1H-pyrazol-4-carboxamido)methyl)-4,5-dihydroisoxazol-5-carboxamido)-3-methylbutyl)boronic acid]
< 10 nM | CC(C)C[C@H](NC(=O)C1(Cc2ccccc2)CC(CNC(=O)c2cc(C(C)C)nn2C(C)C)=NO1)B(O)O (stereo partly drawn) [Example 227, ((1R)-1-(5-benzyl-3-((1,3-diisopropyl-1H-pyrazol-5-carboxamido)methyl)-4,5-dihydroisoxazol-5-carboxamido)-3-methylbutyl)boronic acid]
< 10 nM | CC(C)C[C@H](NC(=O)C1(Cc2ccccc2)CC(CNC(=O)c2cc(-c3cccnc3)nn2C(C)C)=NO1)B(O)O (stereo partly drawn) [Example 228, ((1R)-1-(5-benzyl-3-((1-isopropyl-3-(pyridin-3-yl)-1H-pyrazol-5-carboxamido)methyl)-4,5-dihydroisoxazol-5-carboxamido)-3-methylbutyl)boronic acid]
< 10 nM | CC(C)C[C@H](NC(=O)C1(Cc2ccccc2)CC(CNC(=O)c2cc(-c3ccncc3)nn2C(C)C)=NO1)B(O)O (stereo partly drawn) [Example 229, ((1R)-1-(5-benzyl-3-((1-isopropyl-3-(pyridin-4-yl)-1H-pyrazol-5-carboxamido)methyl)-4,5-dihydroisoxazol-5-carboxamido)-3-methylbutyl)boronic acid]
< 10 nM | COc1cccc(CC2(C(=O)N[C@@H](CC(C)C)B(O)O)CC(CNC(=O)c3cc(-c4ccccc4)nn3C(C)C)=NO2)c1 (stereo partly drawn) [Example 230, ((1R)-1-(3-((1-isopropyl-3-phenyl-1H-pyrazol-5-carboxamido)methyl)-5-(3-methoxybenzyl)-4,5-dihydroisoxazol-5-carboxamido)-3-methylbutyl)boronic acid]
< 10 nM | COc1cccc(CC2(C(=O)N[C@@H](CC(C)C)B(O)O)CC(CNC(=O)c3cc(C(C)(C)C)nn3C(C)C)=NO2)c1 (stereo partly drawn) [Example 231, ((1R)-1-(3-((3-(tert-butyl)-1-isopropyl-1H-pyrazol-5-carboxamido)methyl)-5-(3-methoxybenzyl)-4,5-dihydroisoxazol-5-carboxamido)-3-methylbutyl)boronic acid]
< 10 nM | COc1cccc(CC2(C(=O)N[C@@H](CC(C)C)B(O)O)CC(CNC(=O)c3cc(C)nn3C(C)C)=NO2)c1 (stereo partly drawn) [Example 232, ((1R)-1-(3-((1-isopropyl-3-methyl-1H-pyrazol-5-carboxamido)methyl)-5-(3-methoxybenzyl)-4,5-dihydroisoxazol-5-carboxamido)-3-methylbutyl)boronic acid]
< 10 nM | COc1cccc(CC2(C(=O)N[C@@H](CC(C)C)B(O)O)CC(CNC(=O)c3c(Cl)c(C)nn3C(C)C)=NO2)c1 (stereo partly drawn) [Example 233, ((1R)-1-(3-((4-chloro-1-isopropyl-3-methyl-1H-pyrazol-5-carboxamido)methyl)-5-(3-methoxybenzyl)-4,5-dihydroisoxazol-5-carboxamido)-3-methylbutyl)boronic acid]
< 10 nM | Cc1cccc(CC2(C(=O)N[C@@H](CC(C)C)B(O)O)CC(CNC(=O)c3cc(C)nn3C(C)C)=NO2)c1 (stereo partly drawn) [Example 234, ((1R)-1-(3-((1-isopropyl-3-methyl-1H-pyrazol-5-carboxamido)methyl)-5-(3-methylbenzyl)-4,5-dihydroisoxazol-5-carboxamido)-3-methylbutyl)boronic acid]
< 10 nM | Cc1ncc(C(=O)NCC2=NOC(Cc3ccccc3)(C(=O)N[C@@H](CC(C)C)B(O)O)C2)s1 (stereo partly drawn) [Example 235, ((1R)-1-(5-benzyl-3-((2-methylthiazol-5-carboxamido)methyl)-4,5-dihydroisoxazol-5-carboxamido)-3-methylbutyl)boronic acid]
< 10 nM | Cc1cccc(CC2(C(=O)N[C@@H](CC(C)C)B(O)O)CC(CNC(=O)c3cc(-c4ccccc4)nn3C(C)C)=NO2)c1 (stereo partly drawn) [Example 236, ((1R)-1-(3-((1-isopropyl-3-phenyl-1H-pyrazol-5-carboxamido)methyl)-5-(3-methylbenzyl)-4,5-dihydroisoxazol-5-carboxamido)-3-methylbutyl)boronic acid]
< 10 nM | Cc1cccc(CC2(C(=O)N[C@@H](CC(C)C)B(O)O)CC(CNC(=O)c3cc(C(C)(C)C)nn3C(C)C)=NO2)c1 (stereo partly drawn) [Example 237, ((1R)-1-(3-((3-(tert-butyl)-1-isopropyl-1H-pyrazol-5-carboxamido)methyl)-5-(3-methylbenzyl)-4,5-dihydroisoxazol-5-carboxamido)-3-methylbutyl)boronic acid]
< 10 nM | Cc1cccc(CC2(C(=O)N[C@@H](CC(C)C)B(O)O)CC(CNC(=O)c3cccn4ccnc34)=NO2)c1 (stereo partly drawn) [Example 238, ((1R)-1-(3-((imidazo[1,2-a]pyridin-8-carboxamido)methyl)-5-(3-methylbenzyl)-4,5-dihydroisoxazol-5-carboxamido)-3-methylbutyl)boronic acid]
< 10 nM | COc1cccc(CC2(C(=O)N[C@@H](CC(C)C)B(O)O)CC(CNC(=O)c3ccnn3C(C)C)=NO2)c1 (stereo partly drawn) [Example 239, ((1R)-1-(3-((1-isopropyl-1H-pyrazol-5-carboxamido)methyl)-5-(3-methoxybenzyl)-4,5-dihydroisoxazol-5-carboxamido)-3-methylbutyl)boronic acid]
< 10 nM | COc1cccc(CC2(C(=O)N[C@@H](CC(C)C)B(O)O)CC(CNC(=O)c3cc(C)nn3C3CCCC3)=NO2)c1 (stereo partly drawn) [Example 240, ((1R)-1-(3-((1-cyclopentyl-3-methyl-1H-pyrazol-5-carboxamido)methyl)-5-(3-methoxybenzyl)-4,5-dihydroisoxazol-5-carboxamido)-3-methylbutyl)boronic acid]
< 10 nM | COc1cccc(CC2(C(=O)N[C@@H](CC(C)C)B(O)O)CC(CNC(=O)c3cc(-c4ccccn4)nn3C(C)C)=NO2)c1 (stereo partly drawn) [Example 241, ((1R)-1-(3-((1-isopropyl-3-(pyridin-2-yl)-1H-pyrazol-5-carboxamido)methyl)-5-(3-methoxybenzyl)-4,5-dihydroisoxazol-5-carboxamido)-3-methylbutyl)boronic acid]
